Active and inactive are the calls of the source. The calls are words filed in the database; no cut-off is given here.
Experiments:
[1] = species: Cavia porcellus; test: Phototoxicity (50 mg cm e-2) was evaluated; No phototoxicity; format: functional, organism-based
[2] = tested on: HL-60; test: In vitro antiproliferative activity against human promyelocytic (HL-60) cells; format: functional, cell-based
[3] = tested on: HeLa; test: In vitro antiproliferative activity against human cervix adenocarcinoma (HeLa) cells; format: functional, cell-based
[4] = species: Cavia porcellus; test: Phototoxicity (10 mg/cm**2) was evaluated; highly toxic; format: functional, organism-based
[5] = tested on: Cavia porcellus; test: Compound was evaluated for the erythema formation; +++ means severe erythema with edema; format: functional, organism-based

| IC50 [2] [µM] | IC50 [3] [µM] | SMILES | Phototoxicity [1] | Phototoxicity [4] | Erythema formation [5] |
| --- | --- | --- | --- | --- | --- |
| 0.52 | 1.12 | Cc1cc(=O)oc2c1c(OCCCN(C)C)cc1oc3ccccc3c12 | No phototoxicity |  |  |
| 5.4 | 10 | COc1c2occc2cc2ccc(=O)oc12 [METHOXSALEN] |  | Toxic | Active |
| 6.95 | > 20 | Cc1cc(=O)oc2c1c(O)cc1oc3ccccc3c12 | No phototoxicity |  |  |
| > 20 | > 20 | COc1cc2oc3ccccc3c2c2oc(=O)cc(C)c12 | No phototoxicity |  |  |

Source: ChEMBL document CHEMBL1132756, “A new benzoangelicin with strong photobiological activity” (Bioorg Med Chem Lett, 2000)
